In PubChem BioAssay (NCI):
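These data come from cells grown in 96-well plates and exposed to compound for 48 hours at five concentrations. GI50 = concentration required for 50% inhibition of growth. TGI denotes the concentration required for complete inhibition of growth.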

Key:
Assay in all cases: DTP human tumour cell line panel, 48 h
[1] = test system: OVCAR-3 ovarian
[2] = test system: HOP-92 NSCLC
[3] = test system: 786-0 renal
[4] = test system: A498 renal
[5] = test system: RPMI-8226 leukemia
[6] = test system: K-562 leukemia
[7] = test system: BT-549 breast
[8] = test system: SK-OV-3 ovarian
[9] = test system: ACHN renal
[10] = test system: SF-268 CNS

| Compound | GI50 [1] [µM] | TGI [1] [µM] | GI50 [2] [µM] | TGI [2] [µM] | GI50 [3] [µM] | TGI [3] [µM] | GI50 [4] [µM] | TGI [4] [µM] | GI50 [5] [µM] | TGI [5] [µM] | GI50 [6] [µM] | TGI [6] [µM] | GI50 [7] [µM] | TGI [7] [µM] | GI50 [8] [µM] | TGI [8] [µM] | GI50 [9] [µM] | TGI [9] [µM] | GI50 [10] [µM] | TGI [10] [µM] |
| --- | --- | --- | --- | --- | --- | --- | --- | --- | --- | --- | --- | --- | --- | --- | --- | --- | --- | --- | --- | --- |
| O=C(N[C@@H](C[Se][Se]C[C@H](NC(=O)c1ccc(Br)cc1F)C(=O)O)C(=O)O)c1ccc(Br)cc1F | > 100 | > 100 | > 100 | > 100 | > 100 | > 100 | > 100 | > 100 | > 100 | > 100 | > 100 | > 100 | > 100 | > 100 | > 100 | > 100 | > 100 | > 100 | > 100 | > 100 |
| C=C1C[C@@H]2CC[C@@]34C[C@H]5O[C@H]6[C@@H](O3)[C@H]3O[C@H](CC[C@@H]3O[C@H]6[C@@H]5O4)CC(=O)C[C@@H]3[C@@H](OC)[C@@H](C[C@H](O)CN)O[C@H]3C[C@H]3O[C@@H](CC[C@@H]1O2)C[C@@H](C)C3=C | < 0.01 | 0.0219 | 0.0734 | 79.4 | 0.0761 | > 100 | < 0.0119 | 0.0456 | < 0.01 |  | < 0.01 | > 100 | < 0.0167 | > 37.5 |  | > 100 | 0.158 | > 100 | 0.304 | > 100 |
| O=C1OCC2=C1C(c1ccccc1)c1cc3c(cc1N2CCO)OCO3 (stereo not drawn) | 1.15 | 2.6 | 13.9 | > 50 | 3.54 | > 50 | 3.38 | > 50 | 3.09 | > 50 | 1.91 | > 50 | 4.93 | > 50 | 8.28 | > 50 | 30.5 | > 50 | 3.82 | > 50 |
| O=C(O)c1ccccc1/C=N/N=C1c2ccccc2-c2ccccc21 |  | 36 |  | > 100 |  | > 100 |  | > 100 |  | 48.2 |  | > 100 |  | > 100 |  | > 100 |  | > 100 |  | 77.1 |
| CC(=O)c1ccc(O)c(CN(C2CCCCC2)C2CCCCC2)c1O |  | > 100 |  | > 100 |  | > 100 |  | > 100 |  | > 100 |  | > 100 |  | > 100 |  | > 100 |  | > 100 |  | > 100 |
